In PubChem BioAssay AID1963845 (Molecular Pharmacology Branch, DTP, NCI, 2024):
Where “and” joins values, the source holds several entries; their conditions need not be identical. Equal entries are not always repeated.

Tested on: 429239-143-T-J1-PDC complex spheroid viability
Experiment: Anticancer human tumor 429239-143-T-J1-PDC patient-derived small cell lung carcinoma cell line growth inhibition [POLQ]
Settings: for viability, T/C: stronger effect = lower value
Experimental: Multicellular complex tumor spheroid response to Polymerase (POL) inhibitors (novobiocin, ART-558, RP6685) in combination with a variety of drugs and investigational agents in selected tumor cell lines
The POL inhibitors (novobiocin, ART-558, and RP6685) were evaluated both individually and in combination with standard of care and investigational anticancer small molecules within a complex spheroid model of solid tumors. . Complex spheroids include a stromal component modeled by human endothelial cells (HUVEC) and fibroblasts modeled by human mesenchymal stem cells (MSCs). The concentration ranges selected for each drug and investigational agent were based upon clinically achievable concentrations if the clinical Cmax of the agent was known.
Compounds. The drugs and investigational agents: novobiocin (NSC847541), ART-558 (NSC835418), RP-6685 (NSC848927), peposertib (NSC802822), ceralasertib (NSC780249), elimusertib (NSC800525), camonsertib (NSC841442), AZD-1390 (NSC803789), olaparib (NSC753686), talazoparib (NSC767125), rucaparib (NSC756644), sotorasib (NSC818433), MRTX-1133 (NSC836407), SN-38 (NSC673596), topotecan (NSC609699), epotoside (NSC141540), doxorubicin (NSC123127), gemcitabine (NSC613327), 5-fluorouracil (NSC19893), paclitaxel (NSC125973), vemurafenib (NSC761431), MSA-2 (NSC828583), SN-011 (NSC837082), adavosertib (NSC754352), prexasertib (NSC758257), carboplatin (NSC241240) and oxaliplatin (NSC266046), were obtained from the National Cancer Institute (NCI) Developmental Therapeutics Program Chemical Repository (21). The FDA-approved anticancer drug set is available from the Developmental Therapeutics Program at https://dtp.cancer.gov/organization/dscb/obtaining/. […] The stock solutions were prepared in dimethyl sulfoxide (DMSO, Sigma-Aldrich, St. Louis, MO, cat. D2650), except for the platinum compounds which were prepared in saline (Quality Biological, Gaithersburg, MD, cat. 114-055-101), at 800-fold the tested concentration and stored at -70 degrees C prior to their use. All drugs and investigational agents were tested over a range starting from a high concentration at or near the clinical Cmax and decreasing in half-log increments. If the clinical Cmax for an agent had not been determined, the highest concentration tested was 10 microM, except for SN-38, which was tested at a high concentration of 1 microM.
Cell Culture. All cells were maintained in an incubator at 37 degrees C and 5% CO2 with 95% humidity. The PDC lines were cultured according to standard operating procedures established by the NCI PDMR (https://pdmr.cancer.gov). Table 3 of the manuscript, lists the cell lines along with the number of the three cell types plated to form the mct-spheroids and media for tumor cell growth. After thawing, all PDC lines, except 997537-175-T-J1-PDC and 415267-285-R-J2-PDC, were cultured in Matrigel-coated flasks prepared with a working solution of 1X Ham's F-12 nutrient mix, without supplementation (Thermo Fisher Scientific, cat. 11765054), 100 U/mL penicillin-streptomycin (Thermo Fisher Scientific, cat. 15140122), and 2.5% Matrigel (Corning Inc., Corning, NY, cat. 354248) for the first three passages. The two PDC lines 997537-175-T-J1-PDC and 415267-285-R-J2-PDC were cultured on uncoated flasks. The 857933-349-R-J2-PDC line was cultured in 6C/Colon 1B media containing advanced DMEM/F-12 (Thermo Fisher Scientific, cat. 12634028), 10 mM HEPES (Thermo Fisher Scientific, cat. 15630080), 1X GlutaMAX supplement (Thermo Fisher Scientific, cat. 35050061), 0.1 mg/mL primocin (InvivoGen, San Diego, CA, cat. ant-pm-2), 10% defined fetal bovine serum, heat inactivated (HyClone Laboratories Inc., Logan, UT, cat. SH30070.03HI), 50% L-WRN conditioned media (ATCC, cat. CRL-3276), 1.25 mM N-Acetyl-L-cysteine (Sigma-Aldrich, cat. A9165), 10 mM nicotinamide (Sigma-Aldrich, cat. N0636), 1X B-27 supplement (Thermo Fisher Scientific, cat. 17504044), 1X N-2 supplement (Thermo Fisher Scientific, cat. […]
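Also: luminescence signal used as surrogate measure of viable cells; spheroids exposed to compounds for seven days before readout.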
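For viability, T/C in this document: 100% = DMSO vehicle control viability as luminescence relative to vehicle.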

## Nc1ccn(C2OC(CO)C(O)C2(F)F)c(=O)n1 (stereo unspecified)
Compound 0.0316 µM
  viability, T/C: 20% and 68.1% and 17.7%
Compound 0.1 µM
  viability, T/C: 18.2% and 6.89% and 16%
Compound 0.316 µM
  viability, T/C: 17.5% and 6.81% and 18.4%
Compound 1 µM
  viability, T/C: 19.9% and 6.79% and 18.6%
Compound 3.16 µM
  viability, T/C: 16.3% and 6.33% and 14.9%
Compound 10 µM
  viability, T/C: 15.8% and 5.46% and 15%
Curve of compound
  IC50: < 0.0316 µM and 0.0444 µM

## COc1cccc(OCCCN)c1-c1cc(Nc2cnc(C#N)cn2)n[nH]1
Compound 0.00316 µM
  viability, T/C: 92% and 99.1% and 90.2%
Compound 0.01 µM
  viability, T/C: 79.7% and 103% and 100%
Compound 0.0316 µM
  viability, T/C: 82.9% and 83.9% and 89.2%
Compound 0.1 µM
  viability, T/C: 39.7% and 73.7% and 77.4%
Compound 0.316 µM
  viability, T/C: 31% and 56.7% and 51.6%
Compound 1 µM
  viability, T/C: 23% and 27% and 41.3%
Curve of compound
  IC50: 0.0762 µM and 0.39 µM and 0.384 µM

## O=C(Nc1ccc(O)c(NS(=O)(=O)c2ccc(F)cc2)c1)c1ccc(-c2ccccc2)cc1 + Nc1ccc(C#CCN(C(=O)Cc2ncc(C(F)(F)F)cc2C(F)(F)F)c2ccc(F)cc2)nn1
Curve of first compound, second compound 0.0316 µM
  IC50: > 10 µM
Curve of first compound, second compound 0.1 µM
  IC50: > 10 µM
Curve of first compound, second compound 0.316 µM
  IC50: > 10 µM
Curve of first compound, second compound 1 µM
  IC50: > 10 µM
Curve of first compound, second compound 3.16 µM
  IC50: > 10 µM
Curve of first compound, second compound 10 µM
  IC50: > 10 µM
Second compound 0.0316 µM, first compound 0.0316 µM
  viability, T/C: 102%
Second compound 0.0316 µM, first compound 0.1 µM
  viability, T/C: 106%
Second compound 0.0316 µM, first compound 0.316 µM
  viability, T/C: 89.5%
Second compound 0.0316 µM, first compound 1 µM
  viability, T/C: 105%
Second compound 0.0316 µM, first compound 3.16 µM
  viability, T/C: 106%
Second compound 0.0316 µM, first compound 10 µM
  viability, T/C: 110%
Second compound 0.1 µM, first compound 0.0316 µM
  viability, T/C: 105%
Second compound 0.1 µM, first compound 0.1 µM
  viability, T/C: 109%
Second compound 0.1 µM, first compound 0.316 µM
  viability, T/C: 112%
Second compound 0.1 µM, first compound 1 µM
  viability, T/C: 106%
Second compound 0.1 µM, first compound 3.16 µM
  viability, T/C: 109%
Second compound 0.1 µM, first compound 10 µM
  viability, T/C: 99%
Second compound 0.316 µM, first compound 0.0316 µM
  viability, T/C: 111%
Second compound 0.316 µM, first compound 0.1 µM
  viability, T/C: 103%
Second compound 0.316 µM, first compound 0.316 µM
  viability, T/C: 104%
Second compound 0.316 µM, first compound 1 µM
  viability, T/C: 108%
Second compound 0.316 µM, first compound 3.16 µM
  viability, T/C: 116%
Second compound 0.316 µM, first compound 10 µM
  viability, T/C: 98.2%
Second compound 1 µM, first compound 0.0316 µM
  viability, T/C: 115%
Second compound 1 µM, first compound 0.1 µM
  viability, T/C: 109%
Second compound 1 µM, first compound 0.316 µM
  viability, T/C: 95.8%
Second compound 1 µM, first compound 1 µM
  viability, T/C: 106%
Second compound 1 µM, first compound 3.16 µM
  viability, T/C: 113%
Second compound 1 µM, first compound 10 µM
  viability, T/C: 109%
Second compound 3.16 µM, first compound 0.0316 µM
  viability, T/C: 107%
Second compound 3.16 µM, first compound 0.1 µM
  viability, T/C: 103%
Second compound 3.16 µM, first compound 0.316 µM
  viability, T/C: 103%
Second compound 3.16 µM, first compound 1 µM
  viability, T/C: 101%
Second compound 3.16 µM, first compound 3.16 µM
  viability, T/C: 97.1%
Second compound 3.16 µM, first compound 10 µM
  viability, T/C: 106%
Second compound 10 µM, first compound 0.0316 µM
  viability, T/C: 102%
Second compound 10 µM, first compound 0.1 µM
  viability, T/C: 96.6%
Second compound 10 µM, first compound 0.316 µM
  viability, T/C: 103%
Second compound 10 µM, first compound 1 µM
  viability, T/C: 93.7%
Second compound 10 µM, first compound 3.16 µM
  viability, T/C: 95.1%
Second compound 10 µM, first compound 10 µM
  viability, T/C: 96.3%

## C#Cc1c(F)ccc2cc(O)cc(-c3ncc4c(N5CC6CCC(C5)N6)nc(OCC56CCCN5CC(F)C6)nc4c3F)c12 (stereo unspecified)
Compound 0.0316 µM
  viability, T/C: 92.4% and 94.3% and 101%
Compound 0.1 µM
  viability, T/C: 91.3% and 103% and 102%
Compound 0.316 µM
  viability, T/C: 114% and 102% and 96%
Compound 1 µM
  viability, T/C: 99% and 112% and 102%
Compound 3.16 µM
  viability, T/C: 102% and 97.4% and 98.6%
Compound 10 µM
  viability, T/C: 84.1% and 91.3% and 103%
Curve of compound
  IC50: > 10 µM

## CNCc1ccc(-c2[nH]c3cc(F)cc4c3c2CCNC4=O)cc1
Compound 0.0316 µM
  viability, T/C: 87.2% and 101% and 90.9%
Compound 0.1 µM
  viability, T/C: 82.5% and 98.5% and 90.4%
Compound 0.316 µM
  viability, T/C: 76.4% and 92.6% and 91.3%
Compound 1 µM
  viability, T/C: 75.4% and 90% and 68.9%
Compound 3.16 µM
  viability, T/C: 49.1% and 76.2% and 44.9%
Compound 10 µM
  viability, T/C: 25% and 30% and 21.1%
Curve of compound
  IC50: 3.17 µM and 6 µM and 2.43 µM

## COc1ccc([C@@H](O)c2cc(-c3ncnc4cc(N5CCOCC5)ccc34)c(F)cc2Cl)nn1
Compound 0.0316 µM
  viability, T/C: 94.3% and 105% and 106%
Compound 0.1 µM
  viability, T/C: 96% and 95.6% and 99.2%
Compound 0.316 µM
  viability, T/C: 93.8% and 92.8% and 87.8%
Compound 1 µM
  viability, T/C: 87.6% and 96.2% and 92.5%
Compound 3.16 µM
  viability, T/C: 55.4% and 93.5% and 53.1%
Curve of compound
  IC50: 3.61 µM and 9.97 µM and 3.52 µM
